Consider five substances from patent publication US8557603B2, “Synthetic peptides, methods and kits for diagnosing autoimmune diseases” (FlySun Development Co. Ltd., priority 2009, dated 2013).

The subject of the experiment is IgA autoantibodies of patients with acute HSP. In words: ELISA detection of IgA anti-β2-GPI-derived peptides antibodies. The experiment is classed as binding, human. To be noted: for binding between IgA derived from 7 patients with acute HSP and the synthetic peptide: IgA1-7 at 10 (g/ml), n=7, OD higher than positive control (β2-GPI) regarded as significant, FIG. 8; for plasma level of IgA anti-β2-GPI peptide antibodies in children with acute HSP compared with healthy subjects: plasma 1:50, peptide coated at 10 (g/ml), expressed as OD, p<0.0001. The method, then:
Circulating IgA immunoglobulins were isolated from 7 plasma samples positive for both CL and β2GPI by use of a commercial kit, Immobilized Jacalin (PIERCE, USA, USA), which isolates serum-circulating IgA1 by galactose-binding lectin.
Briefly, 96-well high binding plates (Costar, Cambridge, Mass., USA) are coated with human β-2-GPI peptides 1-15 at a concentration of 10 (g/ml in Tris-buffered saline (TBS, 0.05 M Tris-HCl and NaCl, PH 7.5). After incubating overnight at 4° C., plates are blocked with TBS containing 0.3% gelatin. Then, plasma samples (1:50 for IgA), and IgA fraction from patients (indicated concentrations) in TBS/0.1% gelatin were distributed into wells in duplicate and incubated for 1.5 hours at room temperature. A pooled normal human IgA (Jackson ImmunoResearch, West Grove, Pa., USA) will be used as negative controls at the same concentrations. After washing with TBS, bound human […] were detected with HRP-conjugated goat anti-human IgA (BioSource International, Camarillo, Calif., USA), and the peroxidase substrate tetramethylbenzidine (Kirkegaard & Perry Laboratories, Gaithersburg, Md., USA). Results were read at a wavelength of 450 nm against a background of 650 nm with a Thermomax plate reader (Molecular Devices Inc., Sunnyvale, Calif., USA).

Turning to “H2N-KPGYVSRGGMRKFICPLTGLWPINTLK-COOH (H-KPGYVSRGGMRKFICPLTGLWPINTLK-OH; listed as Homo sapiens) [P3, synthetic β2-GPI-derived peptide, residues 52-78]”, the “binding between IgA derived from 7 patients with acute HSP and the synthetic peptide” value (“binding between IgA derived” for short) is reported as “significant binding”. Further, the “binding strength among the synthetic peptides” value (IgA anti-peptide antibodies, children with acute HSP, FIGS. 7, 8 and 9) is listed as “most significant”. Further, the “plasma level of IgA anti-β2-GPI peptide antibodies in children with acute HSP compared with healthy subjects” value (from here on “plasma level … compared with healthy subjects”) (FIGS. 7, 8 and 9) was “significantly higher”.
As to “H2N-KWSPELPVCAPIICPPPSIPTFATLRVYK-COOH (H-KWSPELPVCAPIICPPPSIPTFATLRVYK-OH; cysteine pairing not given here; listed as Homo sapiens) [P7, synthetic β2-GPI-derived peptide, residues 129-157]”, the “binding between IgA derived” value is given as “significant binding”. Moreover, the “plasma level … compared with healthy subjects” value (FIGS. 7, 8 and 9) is “significantly higher”.
For the substance “H2N-KATFGCHDGYSLDGPEEIECTKLGNWSAMPSCKASCKVPVKKATVVYQGERVKIQEK-COOH (H-KATFGCHDGYSLDGPEEIECTKLGNWSAMPSCKASCKVPVKKATVVYQGERVKIQEK-OH; cysteine pairing not given here; listed as Homo sapiens) [P11, synthetic β2-GPI-derived peptide, residues 229-285]”, the “binding between IgA derived” value was “significant binding”. Moreover, the “plasma level … compared with healthy subjects” value (FIGS. 7, 8 and 9) was “significantly higher”.
Consider “H2N-FKNGMLHGDKVSFFCKNKEK-COOH (H-FKNGMLHGDKVSFFCKNKEK-OH; listed as Homo sapiens) [P12, synthetic β2-GPI-derived peptide, residues 286-305]”, for which the “binding between IgA derived” value is “significant binding”. Also, the “plasma level … compared with healthy subjects” value (FIGS. 7, 8 and 9) is listed as “significantly higher”.
For the substance “H2N-RYTTFEYPNTISFSCNTGFYLNGADSAK-COOH (H-RYTTFEYPNTISFSCNTGFYLNGADSAK-OH; listed as Homo sapiens) [P5, synthetic β2-GPI-derived peptide, residues 96-123]”, the “binding between IgA derived” value was “significant binding”. In addition, the “plasma level … compared with healthy subjects” value (FIGS. 7, 8 and 9) is listed as “significantly higher”.
